This is an account of results in paper PMC8296708, “The pan HDAC inhibitor Givinostat improves muscle function and histological parameters in two Duchenne muscular dystrophy murine models expressing different haplotypes of the LTBP4 gene” (Skeletal Muscle, 2021).

This assay concerns mdx mice. Briefly: Treadmill run to exhaustion test in mdx mice. The assay is classed as in vivo, mouse (C57BL/10ScSn-Dmd^mdx/J). The following applies: for Distance run: 37.5 mg/kg p.o. An excerpt:
For the efficacy studies, C57BL/10 J (Stock No: 000665) wild type (wt) and C57BL/10ScSn-Dmd^mdx/J (Stock No: 001801) 7–8-week-old male mice, DBA/2J wt (Stock No: 000671), and D2.B10-Dmd^mdx/J (Stock No: 013141) 6–7-week-old male mice were purchased from The Jackson Laboratories (Bar Harbor, Maine, USA). After 5 days of acclimatization in the animal facility, mice were randomized into different treatment groups based on their BW. C57BL/10J wt mice were assigned to the naive wt group (healthy mice that received no treatment, but were subjected to functional tests), whereas mdx mice were assigned to the following groups (9 mice/group; 4–5 mice/cage): naive mdx (mice that received no treatment, but were subjected to functional tests), vehicle (0.5% methylcellulose, p.o.), and Givinostat (0.1, 0.3, 1, 5, 10, 25, and 37.5 mg/kg, p.o.). DBA/2J mice were assigned to the naive wt group (healthy mice that received no treatment, but were subjected to functional tests), whereas D2.B10 mice were assigned to the following groups (12–13 mice/group; 4–5 mice/gage): vehicle (filtered tap water, p.o.), Givinostat (1, 5, 10, and 37.5 mg/kg, p.o.), prednisone 1 mg/kg, and Deflazacort 1 mg/kg (i.p.).
In the efficacy studies, Givinostat powder (ITF2357) was suspended in 0.5% methylcellulose (Sigma-Aldrich) and administered p.o. (by gavage) at the doses of 0.1, 0.3, 1, 5, 10, 25, and 37.5 mg/kg qdx5x15weeks (administration volume per mouse: 10 mL/kg) in mdx mice (see Additional Figure 1A). Vehicle-treated mdx mice received 0.5% methylcellulose suspension. Givinostat suspension was stored at + 4 °C, and it was freshly prepared every 7 days. Probably due to the impairment of their tongue and masticatory muscles, the oral gavage procedure turned out to be difficult to perform, and chronic treatment of D2.B10 mice by this route was considered to bear a high risk of damaging the esophagus. For this reason, Givinostat was administered in the drinking water. Givinostat was dissolved in filtered tap water and was administered in drinking water (throughout 24 h) for 105 days at the dose of 1, 5, 10, and 37.5 mg/kg/day, according to a daily estimate of water consumption of 4 ml/mouse/day. Water consumption was weekly monitored throughout the entire duration of the study weighing the bottle of each cage (maximum 4 mice per cage). Prednisone and Deflazacort powder (Sigma-Aldrich) was dissolved in 2% DMSO (Sigma-Aldrich) and diluted in sterile saline on injection days. Both drugs were administered weekly (for 15 weeks) by i.p. injection at the dose of 1 mg/kg in a volume of 10 mL/kg. Givinostat and steroid treatments started on days 7 and 9 of the experimental plan, respectively (see Additional Figure 1B). All mice were monitored daily and tolerability was evaluated on the basis of BW and clinical signs.
Run to exhaustion performance of mdx and D2.B10 mice was evaluated every 14 or 21 days, respectively, using a treadmill apparatus (Ugo Basile SRL, Italy). The exhaustion protocol consisted in an initially horizontal running at 5 m/min for 5 min after which the speed was increased 1 m/min every minute until exhaustion (the procedure was compliant with the standard operating procedures of TREAT–NMD Neuromuscular Network). The test was concluded when mice remained for more than 10 s on the shocker plate (for both C57BL/10 J and mdx mice) or when D2.B10 mice reached a maximum number of shocks. Due to the excessive stress caused to D2.B10 mice by this functional test, a maximum number of 600 and 150 shocks was set. These experimental conditions were also applied to the DBA/2J wt healthy mice.
After taking baseline readings for behavioral assays (FNmax and distance run by the animals), mice were re-randomized based on these two parameters, also considering the previous randomization performed on their BW.
The grip strength and run to exhaustion tests were performed during the light-cycle phase, in the early hours of the morning (8:00–11:30 am). […]

For `CCN(CC)Cc1ccc2cc(COC(=O)Nc3ccc(C(=O)NO)cc3)ccc2c1` [Givinostat], the Distance run worked out at 785 ± 97 m (day 31), 693 ± 103 m (day 44) and 410 ± 40 m (day 94). Moreover, the “Lowest effective dose on time to exhaustion” value (day 94) was determined as 0.3 mg/kg. The Time to exhaustion entry (highest dose (37.5 mg/kg), day 94, vs vehicle) is “significantly prolonged the time to exhaustion”. For the same compound, under “lower doses, trend of dose-response”, the “Distance run, significance of doses lower than 37.5 mg/kg” value is “did not reach significance”.
